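Briefly, cells in 96-well plates were exposed to five compound concentrations for 48 h, and endpoints were estimated by linear interpolation. GI50: concentration for 50% inhibition of growth. At the TGI there is no net growth.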

Among the test systems are SK-MEL-28 melanoma; NCI/ADR-RES ovarian; KM12 colon; SF-295 CNS; UACC-62 melanoma; SW-620 colon; NCI-H522 lung; OVCAR-4 ovarian; MDA-MB-231 breast; HT29 colon.
Common to all, as to test: growth of human tumour cells (NCI), 48 h

Consider `CN1C2CCC1C(CO)C(=O)C2` (stereo not drawn), for which the TGI was above 100 µM in the experiment with SK-MEL-28 melanoma; above 100 µM with NCI/ADR-RES ovarian; above 100 µM in the experiment on KM12 colon; above 100 µM in the experiment on SF-295 CNS; above 100 µM in the experiment on UACC-62 melanoma; 43.2 µM in the experiment with SW-620 colon. Further, the TGI in the experiment on NCI-H522 lung was 34.2 µM; in the experiment on OVCAR-4 ovarian it was above 100 µM; in the experiment on MDA-MB-231 breast, above 100 µM.
As to `CC(=O)N=S(NC(=O)c1ccc(C)cc1)C(Cl)(Cl)Cl` (stereo not drawn), the TGI in the experiment on HT29 colon is 60.6 µM; in the experiment on SK-MEL-28 melanoma, above 100 µM; in the experiment with NCI/ADR-RES ovarian, 49.1 µM; in the experiment on KM12 colon it was above 100 µM; in the experiment on SF-295 CNS it was above 100 µM; in the experiment on UACC-62 melanoma, above 100 µM. Besides, the results for the TGI in the experiment on SW-620 colon, in the experiment on OVCAR-4 ovarian and with MDA-MB-231 breast were 36.3 µM, 77.7 µM and 68 µM, respectively.
For the molecule `COc1ccc(C(=O)/C=C/c2ccc(OCCCCCCCCCCOc3ccc(/C=C/C(=O)c4ccc(OC)c(OC)c4)cc3)cc2)c(OC)c1`, the TGI with HT29 colon, in the experiment on SK-MEL-28 melanoma, with NCI/ADR-RES ovarian, with KM12 colon, with SF-295 CNS and in the experiment on UACC-62 melanoma was above 100 µM each time. Also, the TGI in the experiment with SW-620 colon, in the experiment with OVCAR-4 ovarian and in the experiment on MDA-MB-231 breast was above 100 µM in each case.
As for `Nc1cc2nc(-c3ccccc3)cn2cn1`, the TGI in the experiment on HT29 colon, in the experiment on SK-MEL-28 melanoma, in the experiment on NCI/ADR-RES ovarian, in the experiment with KM12 colon, with SF-295 CNS and in the experiment with UACC-62 melanoma was above 100 µM throughout. In addition, the TGI in the experiment on SW-620 colon, in the experiment on OVCAR-4 ovarian and in the experiment with MDA-MB-231 breast was above 100 µM in each case.
Regarding `O/N=C/[C@H]1COC2(CCCCC2)O1`, the TGI with HT29 colon, in the experiment on SK-MEL-28 melanoma, in the experiment with NCI/ADR-RES ovarian, in the experiment on KM12 colon, with SF-295 CNS and in the experiment with UACC-62 melanoma was above 100 µM each time. Besides, the TGI in the experiment on SW-620 colon, in the experiment on OVCAR-4 ovarian and in the experiment on MDA-MB-231 breast was above 100 µM in each case.
In the case of `CCc1ccc(OCc2ccccc2C(=O)Nc2ccc3nc(C)cc(N)c3c2)cc1`, the GI50 is 1.75 µM with SK-MEL-28 melanoma; 1.75 µM in the experiment on NCI/ADR-RES ovarian; 1.65 µM in the experiment with SF-295 CNS; 1.6 µM with UACC-62 melanoma; 0.846 µM with MDA-MB-231 breast. The TGI in the experiment with SK-MEL-28 melanoma came out at 3.29 µM; in the experiment on NCI/ADR-RES ovarian, 4.2 µM; with SF-295 CNS, 3.13 µM; with UACC-62 melanoma, 3.02 µM; with MDA-MB-231 breast, 2.25 µM.
In the case of `O=c1cccc2n1CC1CNCC2C1` (stereo not drawn), the TGI with HT29 colon, with SK-MEL-28 melanoma, in the experiment with NCI/ADR-RES ovarian, in the experiment with KM12 colon, with SF-295 CNS and in the experiment on UACC-62 melanoma was above 100 µM in each case. Also, the TGI in the experiment with SW-620 colon, in the experiment with OVCAR-4 ovarian and in the experiment with MDA-MB-231 breast was above 100 µM throughout.
Consider `C[C@@](Br)(C(=O)O)[C@H](Br)C(=O)O`, for which the TGI in the experiment with HT29 colon, in the experiment on SK-MEL-28 melanoma, in the experiment with NCI/ADR-RES ovarian, in the experiment on KM12 colon, with SF-295 CNS and in the experiment with UACC-62 melanoma was above 100 µM each time. For the same molecule, the TGI in the experiment on SW-620 colon, with OVCAR-4 ovarian and with MDA-MB-231 breast was above 100 µM each time.
Consider `COc1cccc(Nc2nc3c([nH]2)c(=O)n(C)c(=O)n3C)c1`, for which the TGI in the experiment on HT29 colon, with SK-MEL-28 melanoma, in the experiment with KM12 colon, in the experiment on SF-295 CNS, with UACC-62 melanoma and in the experiment with SW-620 colon was above 10 µM throughout. In addition, the TGI in the experiment with OVCAR-4 ovarian and in the experiment with MDA-MB-231 breast was above 10 µM throughout.
`O=C(/C=C/CC(O)(c1ccccc1)c1ccccc1)Nc1ccccc1Cl`: the TGI in the experiment with HT29 colon, in the experiment with SK-MEL-28 melanoma, with KM12 colon, in the experiment with SF-295 CNS, with UACC-62 melanoma and in the experiment with SW-620 colon was above 100 µM each time. Moreover, the TGI in the experiment with NCI-H522 lung and in the experiment on OVCAR-4 ovarian was above 100 µM throughout.
For `Cc1cccc2c(N)c3cccc(C(=O)NCC[N+](C)(C)[O-])c3nc12`, the TGI is 60.3 µM with HT29 colon; 45.2 µM in the experiment with SK-MEL-28 melanoma; above 100 µM in the experiment on NCI/ADR-RES ovarian; above 100 µM in the experiment with KM12 colon; 45.4 µM in the experiment on SF-295 CNS; 26.8 µM with UACC-62 melanoma. The TGI in the experiment with SW-620 colon was above 100 µM; in the experiment on OVCAR-4 ovarian, 28.2 µM; in the experiment with MDA-MB-231 breast, 75.1 µM.
Consider `CC(=O)OC1COC(N2c3ccccc3[C@@H]3CCc4c([nH]c5ccccc45)[C@@H]32)C(OC(C)=O)C1OC(C)=O` (mixture of isomers), for which the TGI in the experiment on HT29 colon, in the experiment on SK-MEL-28 melanoma, in the experiment with KM12 colon, in the experiment on SF-295 CNS, in the experiment with UACC-62 melanoma and with SW-620 colon was above 100 µM in each case. Further, the TGI in the experiment with NCI-H522 lung, in the experiment on OVCAR-4 ovarian and in the experiment with MDA-MB-231 breast was above 100 µM each time.
For the molecule `O=c1[nH]nc(-c2ccc([N+](=O)[O-])cc2)[nH]1`, the TGI with HT29 colon, in the experiment with SK-MEL-28 melanoma, in the experiment with NCI/ADR-RES ovarian, in the experiment with KM12 colon, in the experiment on SF-295 CNS and with UACC-62 melanoma was above 100 µM throughout. Further, the TGI with SW-620 colon, with NCI-H522 lung and with OVCAR-4 ovarian was above 100 µM in each case.
In the case of `Nn1nnc2ccccc21`, the TGI in the experiment on HT29 colon, in the experiment on SK-MEL-28 melanoma, in the experiment with NCI/ADR-RES ovarian, with SF-295 CNS, in the experiment on UACC-62 melanoma and with SW-620 colon was above 100 µM throughout. Further, the TGI in the experiment with OVCAR-4 ovarian and in the experiment on MDA-MB-231 breast was above 100 µM throughout.
Turning to `CCc1nc2c([nH]1)C(=O)c1ccccc1C2=O`, the TGI in the experiment on HT29 colon, in the experiment with SK-MEL-28 melanoma, in the experiment with KM12 colon, with SF-295 CNS, in the experiment with UACC-62 melanoma and with SW-620 colon was above 100 µM in each case. Further, the TGI in the experiment with NCI-H522 lung and in the experiment with OVCAR-4 ovarian was above 100 µM throughout.
Turning to `COc1ccc(CCn2ccc(=O)c(O)c2C)cc1OC`, the TGI is 77.4 µM in the experiment with HT29 colon; 57.9 µM in the experiment on NCI/ADR-RES ovarian; above 100 µM in the experiment with KM12 colon; above 100 µM in the experiment on SF-295 CNS; above 100 µM in the experiment on SW-620 colon; 6.2 µM in the experiment with MDA-MB-231 breast.
For `COc1ccccc1Cn1c2c(c3cc(O)ccc31)C(=O)c1ccccc1C2=O`, the TGI with HT29 colon was above 100 µM; in the experiment with SK-MEL-28 melanoma, above 100 µM; in the experiment on NCI/ADR-RES ovarian, 40.4 µM; with KM12 colon it was above 100 µM; with SF-295 CNS it was 42.2 µM; in the experiment with UACC-62 melanoma it was 82.9 µM. Besides, the TGI was above 100 µM in the experiment with SW-620 colon, 12 µM with OVCAR-4 ovarian and 38.2 µM with MDA-MB-231 breast.
As for `Cn1c(=O)c2[nH]c(Nc3cccc(Cl)c3)nc2n(C)c1=O`, the TGI in the experiment on HT29 colon, in the experiment with SK-MEL-28 melanoma, with KM12 colon, in the experiment with SF-295 CNS, with UACC-62 melanoma and in the experiment with SW-620 colon was above 10 µM throughout. Also, the TGI in the experiment on OVCAR-4 ovarian and in the experiment with MDA-MB-231 breast was above 10 µM in each case.
As to `O=c1ccn([C@@H]2C=C(CO)[C@@H](O)[C@H]2O)c(=O)[nH]1`, the TGI with HT29 colon, in the experiment on SK-MEL-28 melanoma, in the experiment on NCI/ADR-RES ovarian, in the experiment with KM12 colon, in the experiment with SF-295 CNS and with UACC-62 melanoma was above 625 µM in each case. The TGI in the experiment with SW-620 colon, with NCI-H522 lung and with OVCAR-4 ovarian was above 625 µM throughout.
For `CCOP(=O)(COCCn1nc(Br)c(=O)[nH]c1=O)OCC`, the TGI in the experiment with SK-MEL-28 melanoma, with NCI/ADR-RES ovarian, in the experiment with KM12 colon, with SW-620 colon, in the experiment on NCI-H522 lung and in the experiment with MDA-MB-231 breast was above 100 µM in each case.
Take `CCOP(=O)(CC1OC(CO)C(O)C1O)OCC` (stereo not drawn): the TGI is above 61.8 µM in the experiment with HT29 colon; above 100 µM in the experiment with SK-MEL-28 melanoma; above 100 µM in the experiment on KM12 colon; above 100 µM in the experiment with SF-295 CNS; above 100 µM with UACC-62 melanoma; above 100 µM with SW-620 colon. Also, the TGI in the experiment on NCI-H522 lung, with OVCAR-4 ovarian and in the experiment on MDA-MB-231 breast was above 100 µM each time.
For the molecule `CN(C)C(=O)/N=C1\SC(=Nc2ccccc2)C(=Nc2ccccc2)N1c1ccc([N+](=O)[O-])cc1`, the TGI in the experiment with HT29 colon, in the experiment on SK-MEL-28 melanoma, in the experiment on NCI/ADR-RES ovarian, with KM12 colon, in the experiment with SF-295 CNS and in the experiment on UACC-62 melanoma was above 100 µM throughout. Moreover, the TGI in the experiment with NCI-H522 lung and with MDA-MB-231 breast was above 100 µM each time.
`O=C1c2cc3c(cc2-c2c1c1cc(F)c(F)cc1c(=O)n2C[C@H](O)CO)OCO3`: the GI50 is 0.28 µM in the experiment with SK-MEL-28 melanoma; 0.0396 µM with NCI/ADR-RES ovarian; 0.123 µM in the experiment with KM12 colon; 0.0153 µM with UACC-62 melanoma; 0.0431 µM with SW-620 colon; 0.0232 µM in the experiment on NCI-H522 lung. The figures for the GI50 in the experiment with OVCAR-4 ovarian and in the experiment with MDA-MB-231 breast were 0.423 µM and 0.378 µM, respectively. For the same molecule, the TGI with SK-MEL-28 melanoma was 7.15 µM; in the experiment on NCI/ADR-RES ovarian, 0.468 µM; in the experiment with KM12 colon, above 100 µM; with UACC-62 melanoma, 0.0678 µM; with SW-620 colon, 1.98 µM; with NCI-H522 lung it was 0.48 µM. Moreover, the TGI with OVCAR-4 ovarian was above 100 µM; in the experiment with MDA-MB-231 breast, 3.18 µM.

Values taken from PubChem BioAssay (NCI).
